Measured values published in patent US20080009551A1, “Methods and Compositions for Identifying Modulators of G Protein-Coupled Receptors” (Arena Pharmaceuticals, Inc., priority 2003, published 2008).

What was measured:
niacin receptor = experiment: Upregulation of GURC-modified niacin receptor (luciferase assay); format: cell-based; settings: FIG. 15A
β2 adrenergic receptor = experiment: Upregulation of GURC-modified β2 adrenergic receptor (luciferase assay); format: cell-based; settings: FIG. 15B
histamine receptor H3 = settings: FIG. 14
histamine receptor H3, sequence (as listed by the source): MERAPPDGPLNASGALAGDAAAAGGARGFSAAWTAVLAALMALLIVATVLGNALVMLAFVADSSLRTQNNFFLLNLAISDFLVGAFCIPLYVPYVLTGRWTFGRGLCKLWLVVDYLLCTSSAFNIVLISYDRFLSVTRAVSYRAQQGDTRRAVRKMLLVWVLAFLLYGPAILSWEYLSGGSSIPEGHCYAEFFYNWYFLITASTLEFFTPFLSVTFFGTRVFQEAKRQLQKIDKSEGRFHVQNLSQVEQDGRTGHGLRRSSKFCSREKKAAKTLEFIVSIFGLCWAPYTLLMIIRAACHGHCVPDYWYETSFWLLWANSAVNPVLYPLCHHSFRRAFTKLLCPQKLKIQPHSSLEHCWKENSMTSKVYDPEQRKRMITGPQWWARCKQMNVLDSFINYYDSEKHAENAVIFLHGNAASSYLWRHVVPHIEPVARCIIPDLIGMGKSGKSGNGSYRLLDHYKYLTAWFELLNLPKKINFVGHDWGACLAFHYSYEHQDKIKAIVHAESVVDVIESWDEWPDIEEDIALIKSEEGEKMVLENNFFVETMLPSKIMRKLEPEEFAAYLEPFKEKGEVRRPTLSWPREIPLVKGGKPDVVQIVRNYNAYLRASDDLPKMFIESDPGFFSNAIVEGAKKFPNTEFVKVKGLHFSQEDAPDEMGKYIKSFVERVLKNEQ

Row | Compound | upregulation of the niacin receptor (niacin receptor) | upregulation of the β2 adrenergic receptor (β2 adrenergic receptor) | potency at histamine receptor H3 (histamine receptor H3)
1 | COC(=O)c1cccnc1 [methyl nicotinate] | dose-dependent upregulation | lack of dose-dependent upregulation | –
2 | Nc1ncnc2c1ncn2[C@@H]1O[C@H](COP(=O)(O)OP(=O)(O)OC[C@@H]2O[C@H]([n+]3cccc(C(=O)[O-])c3)[C@@H](O)[C@H]2O)[C@@H](O)[C@H]1OP(=O)(O)O [NAADP-β] | dose-dependent upregulation | lack of dose-dependent upregulation | –
3 | Methyl histamine | – | – | low potency
